Experimental findings from PMC3108469 (Journal of Medicinal Chemistry, 2011) are described below.

For the series the following is noted: Sprague–Dawley rats.

`CN(C)[C@@H]1C(O)=C(C(N)=O)C(=O)[C@@]2(O)C(O)=C3C(=O)c4c(c(F)c5ccc(CN6CCC6)cc5c4O)C[C@H]3C[C@@H]12` [19c-5, (4S,4aS,5aR,14aS)-10-(Azetidin-1-ylmethyl)-4-(dimethylamino)-7-fluoro-3,12,14,14a-tetrahydroxy-1,13-dioxo-1,4,4a,5,5a,6,13,14a-octahydropentacene-2-carboxamide]: the Vz entry is reported as “exceptionally large” and the exposure result was “extremely poor exposure”.

In the case of `CN(C)c1cc(NC(=O)CNC(C)(C)C)c(O)c2c1C[C@H]1C[C@H]3[C@H](N(C)C)C(O)=C(C(N)=O)C(=O)[C@@]3(O)C(O)=C1C2=O` [tigecycline, reference compound], the “oral bioavailability (%F)” value was “almost no oral bioavailability”.
